The results in this text go back to patent publication US4599424A, “5-substituted thiadiazole ureas and their use as herbicides” (priority 1979, dated 1986).

The subject of experiment [1] is a variety of crops and weed species. The experiment is described as follows: Pre- and post-emergence herbicide tests, overall assessment of TABLES III-VI. Conditions: from data of TABLES III-VI. Format: in vivo. How it is done:
(§1) All crop and weed species were planted individually in 3" plastic pots containing potting soil. Four seeds each of corn, cotton, and snapbeans were seeded to a depth equal to the diameter of the seed. All other species were surface seeded and sprinkled with screened soil in an amount sufficient to cover the seed. Immediately after planting, all pots were watered by sub-irrigation in greenhouse trays. Pots for the pre-emergence phase were seeded one day before treatment.
(§2) Planting dates for the post-emergence phase were varied so that all seedlings would reach the desired stage of development simultaneously. The proper stage of seedling development for treatment in the post-emergence phase is as follows:
(§3) Compounds were tested at rates of application equivalent to 8 lbs. of actual compound per acre in a spray volume of 38 gallons per acre. Spray hood constants required to deliver the above volume are as follows:
(§4) Two weeks after treatment, pre- and post-emergence injury or control was visually rated, and the results were as shown in the following tables. Pre-emergence data are provided in TABLE III and post-emergence data are provided in TABLE IV, for compounds having the formula illustrated in TABLE I. Correspondingly, pre-emergence and post-emergence data, respectively, are set forth in TABLES V AND VI, for compounds having the formula illustrated in TABLE II.
Typical of such compounds are: 1, 2, 5, 26, 36, and 37.

In experiment [2] the test system is Corn (CN). Briefly: Post-emergence herbicide test, corn. Format: in vivo, Zea mays. To be noted: two weeks. As for the experimental part:
as §1, §2, §3
(§5) Formulations for spray applications were prepared in 50 ml volumes with the following three components:
(§6) Formulations for the 4 lbs/acre rate were prepared by adjusting the amount of active ingredient accordingly.
(§7) Spray applications were made in a hood containing a removable belt and fixed spray nozzle. For passage through the spray hood, one pot of each specie (pre-emergence phase) was placed on the rear half of the flat. Treatments were removed to the greenhouse after spraying. Watering during the observation period was done only by sub-irrigation.
as §4

Experiment [3] relates to Crabgrass (CG). The experiment is described as follows: Pre-emergence herbicide test, crabgrass. It counts as in vivo, Digitaria sanguinalis. Conditions: two weeks. As for the experimental part: (§8) Crabgrass (CG)--Digitaria sanguinalis
as §1
(§9) Spray hood constants required to deliver the above volume are as follows:
as §5, §6, §7, §4

The test system of experiment [4] is Yellow foxtail grass (YF). The experiment is described as follows: Pre-emergence herbicide test, yellow foxtail grass. Format: in vivo, Setarin glauca. To be noted: two weeks. As for the experimental part:
(§10) Yellow foxtail grass (YF)--Setarin glauca
as §1, §9
(§11) Formulations for spray applications were prepared in 50 ml volumes with the following three components: […]
as §7, §4

The subject of experiment [5] is Johnson grass (JG). Briefly: Pre-emergence herbicide test, Johnson grass. Format: in vivo, Sorgum helepense. Conditions: two weeks. How it is done:
(§12) Johnson grass (JG)--Sorgum helepense
as §1, §9, §11, §7, §4

Experiment [6] has as its system Barnyard grass (BG). Briefly: Pre-emergence herbicide test, barnyard grass. Format: in vivo, Echinochloa crus-galli. Conditions: two weeks. As for the experimental part: (§13) Barnyard grass (BG)--Echinochloa crus-galli
as §1, §3, §5, §6, §7, §4

In experiment [7] the test system is Amaranth pigweed (PW). The experiment is described as follows: Pre-emergence herbicide test, amaranth pigweed. Conditions: two weeks. Format: in vivo, Amaranthus retroflexus. How it is done: (§14) Amaranth pigweed (PW)--Amaranthus retroflexus
as §1, §3, §5, §6, §7, §4

In experiment [8] the test system is Turnip (TP). Briefly: Pre-emergence herbicide test, turnip. It counts as in vivo, Brassica sp. Conditions: two weeks. As for the experimental part: (§15) Turnip (TP)--Brassica sp.
as §1, §9, §11, §7, §4

The test system of experiment [9] is Cotton (CT). The experiment is described as follows: Pre-emergence herbicide test, cotton. It counts as in vivo, Gossypium hirsutum var. DPL smooth leaf. To be noted: two weeks. As for the experimental part:
(§16) Cotton (CT)--Gossypium hirsutum var. DPL smooth leaf
as §1, §3, §5, §6, §7, §4

Experiment [10] deals with Corn (CN). The experiment is described as follows: Pre-emergence herbicide test, corn. Conditions: two weeks. It counts as in vivo, Zea mays. How it is done: as §1, §3, §5, §6, §7, §4
The subject of experiment [11] is Bean (BN). The experiment is described as follows: Pre-emergence herbicide test, bean. Format: in vivo, Phaseolus vulgaris var. Black Valentine. To be noted: two weeks. How it is done: (§17) Bean (BN)--Phaseolus vulgaris var. Black Valentine
as §1, §3, §5, §6, §7, §4

Experiment [12] concerns Crabgrass (CG). The experiment is described as follows: Post-emergence herbicide test, crabgrass. Conditions: two weeks. It counts as in vivo, Digitaria sanguinalis. As for the experimental part: as §8, §1, §2, §9, §11, §7, §4
Experiment [13] deals with Yellow foxtail grass (YF). Briefly: Post-emergence herbicide test, yellow foxtail grass. It counts as in vivo, Setarin glauca. Conditions: two weeks. How it is done: as §10, §1, §2, §3, §5, §6, §7, §4
For experiment [14], the system named is Johnson grass (JG). Briefly: Post-emergence herbicide test, Johnson grass. Format: in vivo, Sorgum helepense. Conditions: two weeks. How it is done:
as §12, §1, §2, §9, §11, §7, §4

Experiment [15] has as its system Barnyard grass (BG). Briefly: Post-emergence herbicide test, barnyard grass. It counts as in vivo, Echinochloa crus-galli. Conditions: two weeks. How it is done: as §13, §1, §2, §9, §11, §7, §4
Experiment [16] has as its system Amaranth pigweed (PW). Briefly: Post-emergence herbicide test, amaranth pigweed. Format: in vivo, Amaranthus retroflexus. Conditions: two weeks. As for the experimental part: as §14, §1, §2
(§18) Pigweed and turnips: 1 or 2 true leaves above visible cotyledons.
as §3, §5, §6, §7, §4

Experiment [17] concerns Turnip (TP). The experiment is described as follows: Post-emergence herbicide test, turnip. Format: in vivo, Brassica sp. Conditions: two weeks. How it is done: as §15, §1, §2, §18, §9, §11, §7, §4
Experiment [18] relates to Cotton (CT). The experiment is described as follows: Post-emergence herbicide test, cotton. Format: in vivo, Gossypium hirsutum var. DPL smooth leaf. Conditions: two weeks. As for the experimental part:
as §16, §1, §2
cotton: first true leaf 1" in length; expanded cotyledons.
as §9, §5, §6, §7, §4

In experiment [19] the test system is Bean (BN). Briefly: Post-emergence herbicide test, bean. It counts as in vivo, Phaseolus vulgaris var. Black Valentine. Conditions: two weeks. How it is done: as §17, §1, §2
Beans: primary leaves expanded, growing point at primary leaf nodes.
as §9, §5, §6, §7, §4

Structures are written as SMILES.

Take `CNC(=O)Nc1nnc(CC(C)C)s1` [Example 21]: the “herbicidal effectiveness and selectivity (in words)” value in experiment [1] is “more selective”.
On the same count and under the same terms, the entry for `CNC(=O)Nc1nnc(COC)s1` [Example 25] is “more selective”; for `CNC(=O)Nc1nnc(SC)s1` [Example 26] it is “extremely effective”.
Consider `CNC(=O)Nc1nncs1` [Example 35], for which the “herbicidal effectiveness and selectivity (in words)” value in [1] is listed as “more selective”.
Turning to `CNC(=O)N(C)c1nnc(C(F)(F)F)s1` [Example 36], in [1], the “herbicidal effectiveness and selectivity (in words)” value is recorded as “extremely effective”.
Regarding `CCN(C(=O)NC)c1nnc(C(F)(F)F)s1` [Example 37], in the experiment on Corn (CN) [2] (Zea mays, post-emergence, 336 h, 4 lb/acre), the pest or weed control (usually the degree to which the test organism was suppressed or injured, in per cent) at 4483.4 g/ha was found to be 30%. For the same compound, the “herbicidal effectiveness and selectivity (in words)” value in experiment [1] is “extremely effective”.
With `CNC(=O)N(C)c1nnc(C(C)(C)C)s1` [Example 42], the “PRE-EMERGENCE ACTIVITY, % CONTROL” value with Crabgrass (CG) [3] (2 lb/acre) worked out at 90%; in the experiment on Crabgrass (CG) [3] (4 lb/acre) it was 90%; in the experiment with Crabgrass (CG) [3] (8 lb/acre), 90%; in experiment [4] (2 lb/acre) it was 90%; in experiment [4] (4 lb/acre) it was 80%; in experiment [4] (8 lb/acre) it was 90%. Besides, the “PRE-EMERGENCE ACTIVITY, % CONTROL” value came to 70% in the experiment on Johnson grass (JG) [5] (2 lb/acre); 90% in the experiment with Johnson grass (JG) [5] (4 lb/acre); 100% in the experiment with Johnson grass (JG) [5] (8 lb/acre); 80% in the experiment with Barnyard grass (BG) [6] (2 lb/acre); 90% with Barnyard grass (BG) [6] (4 lb/acre); 90% in the experiment with Barnyard grass (BG) [6] (8 lb/acre). Also, the “PRE-EMERGENCE ACTIVITY, % CONTROL” value is listed as 100% in the experiment with Amaranth pigweed (PW) [7] (2 lb/acre); 100% in the experiment with Amaranth pigweed (PW) [7] (4 lb/acre); 100% in the experiment with Amaranth pigweed (PW) [7] (8 lb/acre); 100% in the experiment with Turnip (TP) [8] (2 lb/acre); 90% in the experiment on Turnip (TP) [8] (4 lb/acre); 100% in the experiment with Turnip (TP) [8] (8 lb/acre). For the same compound, the “PRE-EMERGENCE ACTIVITY, % CONTROL” value in the experiment on Cotton (CT) [9] (2 lb/acre) turned out to be 30%; in the experiment with Cotton (CT) [9] (4 lb/acre) it was 70%; in the experiment with Cotton (CT) [9] (8 lb/acre), 90%; with Corn (CN) [10] (2 lb/acre) it was 0%; in the experiment on Corn (CN) [10] (4 lb/acre), 60%; in the experiment on Corn (CN) [10] (8 lb/acre), 90%. Also, the “PRE-EMERGENCE ACTIVITY, % CONTROL” value stood at 40% in the experiment on Bean (BN) [11] (2 lb/acre), 90% in the experiment with Bean (BN) [11] (4 lb/acre) and 100% in the experiment on Bean (BN) [11] (8 lb/acre). Also, the “POST-EMERGENCE ACTIVITY, % CONTROL” value in the experiment on Crabgrass (CG) [12] (2 lb/acre) is 40%; with Crabgrass (CG) [12] (4 lb/acre), 70%; in the experiment on Crabgrass (CG) [12] (8 lb/acre), 100%; in experiment [13] (2 lb/acre), 90%; in [13] (4 lb/acre) it was 90%; in experiment [13] (8 lb/acre), 100%. Moreover, the “POST-EMERGENCE ACTIVITY, % CONTROL” value came to 70% in the experiment on Johnson grass (JG) [14] (2 lb/acre); 90% in the experiment with Johnson grass (JG) [14] (4 lb/acre); 100% in the experiment on Johnson grass (JG) [14] (8 lb/acre); 90% in the experiment with Barnyard grass (BG) [15] (2 lb/acre); 90% with Barnyard grass (BG) [15] (4 lb/acre); 100% in the experiment on Barnyard grass (BG) [15] (8 lb/acre). In addition, the “POST-EMERGENCE ACTIVITY, % CONTROL” value with Amaranth pigweed (PW) [16] (2 lb/acre), with Amaranth pigweed (PW) [16] (4 lb/acre), in the experiment with Amaranth pigweed (PW) [16] (8 lb/acre), in the experiment on Turnip (TP) [17] (2 lb/acre), with Turnip (TP) [17] (4 lb/acre) and in the experiment on Turnip (TP) [17] (8 lb/acre) was 100% in each case. For the same compound, the “POST-EMERGENCE ACTIVITY, % CONTROL” value was 100% with Cotton (CT) [18] (2 lb/acre); 100% in the experiment with Cotton (CT) [18] (4 lb/acre); 100% in the experiment on Cotton (CT) [18] (8 lb/acre); 70% in the experiment on Corn (CN) [2] (2 lb/acre); 70% with Corn (CN) [2] (4 lb/acre); 100% with Corn (CN) [2] (8 lb/acre). For the same compound, the figures for the “POST-EMERGENCE ACTIVITY, % CONTROL” value in the experiment on Bean (BN) [19] (2 lb/acre), in the experiment with Bean (BN) [19] (4 lb/acre) and in the experiment with Bean (BN) [19] (8 lb/acre) were 80%, 100% and 100%, respectively.
On to `NC(=O)Nc1nnc(C(F)(F)F)s1` [Example 70], for which the “PRE-EMERGENCE ACTIVITY, % CONTROL” value in the experiment with Crabgrass (CG) [3] (5 lb/acre), in the experiment on Crabgrass (CG) [3] (10 lb/acre), in the experiment on Turnip (TP) [8] (5 lb/acre) and in the experiment on Turnip (TP) [8] (10 lb/acre) was 10% in each case. Moreover, the “POST-EMERGENCE ACTIVITY, % CONTROL” value in the experiment on Crabgrass (CG) [12] (5 lb/acre) amounted to 20%; in the experiment with Crabgrass (CG) [12] (10 lb/acre), 20%; in the experiment with Turnip (TP) [17] (5 lb/acre), 80%; with Turnip (TP) [17] (10 lb/acre) it was 80%; in the experiment on Cotton (CT) [18] (5 lb/acre) it was 20%; with Cotton (CT) [18] (10 lb/acre), 20%. Moreover, the “POST-EMERGENCE ACTIVITY, % CONTROL” value in the experiment on Bean (BN) [19] (5 lb/acre) and in the experiment with Bean (BN) [19] (10 lb/acre) was 50% in each case.
Take `CNC(=O)Nc1nnc(-c2cccc(C(F)(F)F)c2)s1` [Example 73]: the pest or weed control at 4483.4 g/ha with Cotton (CT) [9] (Gossypium hirsutum, pre-emergence, 336 h, 4 lb/acre) stood at 10%; in the experiment with Crabgrass (CG) [12] (Digitaria sanguinalis, post-emergence, 336 h, 4 lb/acre), 80%.
Turning to `CCSc1nnc(N(C)C(=O)NC)s1` [Example 89], the pest or weed control at 560.425 g/ha with Bean (BN) [19] (Phaseolus vulgaris, post-emergence, 336 h, 0.5 lb/acre) came out at 100%.
